Assay results: patent US9459250B2, “Use of T1R3 venus flytrap region polypeptide to screen for taste modulators” (SENOMYX, INC., priority 2003, dated 2016)
“Also recorded” adds a separate entry of the source. Read-outs that look alike come from different tables or passages of the source. One block for each compound: values may come before it. Where a SMILES comes first, the peptide text is derived from it.

Tests used:
[1] = target: T1, T1R1/T1R3 (Homo sapiens (Human), UniProt Q7RTX0+Q7RTX1); assay: FLIPR dose responses of human T1R1/T1R3 stable cell line with modulators; format: cell-based; settings: for effect of control sweeteners on activities of T1R1/T1R3 umami taste receptor: [Steviocide]=0.5 mM, [Saccharin]=1 mM, glutamate and glutamate/IMP dose responses
T1 sequence (Q7RTX1 21-841): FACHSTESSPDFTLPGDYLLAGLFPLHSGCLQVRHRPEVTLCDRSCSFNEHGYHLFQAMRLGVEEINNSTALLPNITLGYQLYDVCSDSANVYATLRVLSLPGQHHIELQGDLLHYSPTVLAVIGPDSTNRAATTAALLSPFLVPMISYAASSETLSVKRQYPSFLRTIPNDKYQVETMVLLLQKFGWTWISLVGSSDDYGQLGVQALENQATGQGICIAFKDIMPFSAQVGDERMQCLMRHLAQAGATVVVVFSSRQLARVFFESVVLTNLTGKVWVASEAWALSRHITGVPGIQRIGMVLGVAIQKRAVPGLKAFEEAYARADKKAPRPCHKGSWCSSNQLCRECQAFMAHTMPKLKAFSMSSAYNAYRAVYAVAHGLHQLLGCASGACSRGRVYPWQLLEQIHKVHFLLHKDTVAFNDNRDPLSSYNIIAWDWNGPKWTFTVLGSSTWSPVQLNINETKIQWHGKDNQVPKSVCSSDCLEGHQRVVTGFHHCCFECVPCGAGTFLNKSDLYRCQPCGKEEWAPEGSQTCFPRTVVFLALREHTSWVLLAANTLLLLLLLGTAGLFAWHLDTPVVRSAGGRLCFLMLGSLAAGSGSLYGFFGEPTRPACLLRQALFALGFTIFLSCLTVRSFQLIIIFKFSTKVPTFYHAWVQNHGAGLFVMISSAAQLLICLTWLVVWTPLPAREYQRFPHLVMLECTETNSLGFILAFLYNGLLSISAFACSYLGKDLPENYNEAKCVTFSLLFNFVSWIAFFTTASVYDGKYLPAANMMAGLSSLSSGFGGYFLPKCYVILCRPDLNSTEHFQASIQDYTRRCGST
T1 sequence (Q7RTX0 21-852 C757R): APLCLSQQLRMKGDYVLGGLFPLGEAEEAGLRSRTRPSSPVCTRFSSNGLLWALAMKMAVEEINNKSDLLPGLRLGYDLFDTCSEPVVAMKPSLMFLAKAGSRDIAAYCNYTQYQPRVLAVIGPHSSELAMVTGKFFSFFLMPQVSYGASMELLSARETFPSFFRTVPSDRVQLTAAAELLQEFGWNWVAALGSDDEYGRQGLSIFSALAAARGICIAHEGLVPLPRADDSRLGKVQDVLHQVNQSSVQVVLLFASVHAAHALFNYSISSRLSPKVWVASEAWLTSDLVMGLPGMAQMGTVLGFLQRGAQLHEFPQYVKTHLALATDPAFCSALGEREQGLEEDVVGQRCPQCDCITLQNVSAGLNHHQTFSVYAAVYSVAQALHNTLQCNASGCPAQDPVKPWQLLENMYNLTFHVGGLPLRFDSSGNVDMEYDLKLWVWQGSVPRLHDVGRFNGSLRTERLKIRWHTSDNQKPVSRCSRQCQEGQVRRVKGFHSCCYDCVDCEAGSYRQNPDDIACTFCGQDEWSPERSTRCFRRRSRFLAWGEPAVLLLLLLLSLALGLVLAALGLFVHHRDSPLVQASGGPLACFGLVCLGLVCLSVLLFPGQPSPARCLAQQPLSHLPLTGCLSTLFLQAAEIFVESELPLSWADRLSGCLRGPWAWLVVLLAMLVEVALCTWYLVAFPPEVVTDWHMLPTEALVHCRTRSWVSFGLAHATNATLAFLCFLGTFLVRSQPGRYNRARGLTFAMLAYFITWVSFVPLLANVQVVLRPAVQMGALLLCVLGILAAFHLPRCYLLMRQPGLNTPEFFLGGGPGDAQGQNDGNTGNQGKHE
From the text: (§1) “Detection thresholds” are defined as the lower limit of detectable tastants. The detection threshold values were averaged over four trials for three subjects. […] The activities in B, C, E and F represent the mean±SE of fold increases in fluorescence intensities for four recorded wells. The dose-responses in B, C, E and F were reproduced at least 6 times independently.
Human cell lines that stably co-express human T1R2/T1R3 or human T1R1/T1R3 were generated by transfecting linearized PEAK10-derived (Edge Biosystems) vectors and pcDNA 3.1/ZEO-derived (Invitrogen) vectors respectively containing hT1R1 or hT1R2 expression construct (plasmid SAV2485 for T1R1, SAV2486 for T1R2) and hT1R3 (plasmid SXV550 for T1R3) into a Gα15 expressing cell line. […] Following SAV2485/SXV550 and SAV2486/SXV550 transfections, puromycin-resistant and zeocin-resistant colonies were selected, expanded, and tested by calcium imaging for responses to sweet or umami taste stimuli. Cells were selected in 0.0005 mg/ml puromycin (CALBIOCHEM) and 0.1 mg/ml zeocin (Invitrogen) at 37° C. in low-glucose DMEM supplemented with GlutaMAX, 10% dialyzed FBS, and 0.003 mg/ml blasticidin. Resistant colonies were expanded, and their responses to sweet taste stimuli evaluated by Fluorescence microscopy. For automated fluorimetric imaging on VIPR-II instrumentation (Aurora Biosciences), T1R2/T1R3 stable cells were first seeded onto 96-well plates (approximately 100,000 cells per well).

[2] = target: T1, T1R1/T1R3; assay: Umami FLIPR assay, HEK-Gα15 clone I-17 inducibly expressing T1R1/T1R3; format: cell-based; settings: for EC50: Table 1 Umami Amides; for activation of T1R1/T1R3 receptor by L-amino acids: clone I-17, with and without IMP
Description: A dose-dependent response curve was determined for a compound, and the compound concentration corresponding to 50% of the maximal response was derived from the curve, in one example.
Regarding umami tastants and enhancers, scores of their activities can be given as percentage of the maximum MSG intensity (%). In compound dose response, an EC50 can be calculated to reflect the potency of the compound as umami agonist.
(§2) HEK-Gα15 cells were engineered to inducibly express T1R1/T1R3 using the GeneSwitch system (Invitrogen). pGene-derived zeocin-resistant expression vectors for human T1R1 and T1R3 (plasmid SXV603 for T1R1 and SXV611 for T1R3) and a puromycin-resistant pSwitch-derived vector that carries the GeneSwitch protein (plasmid SXV628) were linearized and cotransfected into the HEK-Gα15 cell line. Zeocin-resistant and puromycin-resistant colonies were selected, expanded, induced with variable amounts of mifepristone, and tested by calcium imaging for responses to umami taste stimuli. […] After replacement with 50 μl PBS, stimulation was performed at room temperature by the addition of 50 μl PBS supplemented with different stimuli. The maximal fluorescence from four independent determinations were averaged, corrected for background fluorescence measured prior to compound addition, and normalized to the response to 0.002 mM ionomycin (CALBIOCHEM).

[3] = target: mT2R5 (Mus musculus (Mouse), UniProt Q9JKT4); assay: Mouse bitter receptor mT2R5 transiently expressed in HEK cells; format: cell-based
Sequence of mT2R5 (Q9JKT4 whole entry): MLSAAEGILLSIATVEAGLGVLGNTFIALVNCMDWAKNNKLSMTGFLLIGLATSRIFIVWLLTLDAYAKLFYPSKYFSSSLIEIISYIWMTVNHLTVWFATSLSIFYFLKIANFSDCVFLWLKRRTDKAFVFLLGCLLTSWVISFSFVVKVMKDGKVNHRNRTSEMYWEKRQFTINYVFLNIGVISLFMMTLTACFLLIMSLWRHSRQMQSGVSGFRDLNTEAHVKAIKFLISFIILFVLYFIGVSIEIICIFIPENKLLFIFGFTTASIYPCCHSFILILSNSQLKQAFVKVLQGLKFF
From the text: As was the case for the T1R2/T1R3 receptor, lactisole inhibition of the T1R1/T1R3 response to umami taste stimuli was reversible following washout and restimulation.

[4] = system: endogenous muscarinic acetylcholine receptor; assay: Endogenous muscarinic acetylcholine receptor response in HEK cells; format: cell-based; settings: carbachol
From the text: as §1

[5] = Human taste detection thresholds in the presence of lactisole; format: in vivo; settings: millimolar (1 and 2 mM) lactisole, human subjects
From the text: as §1
The present inventors then evaluated the effect of lactisole on human umami taste.

[6] = system: HEK293-Gα15 cells; assay: FLIPR assay on HEK293-Gα15 cells not expressing the human sweet receptor; format: cell-based
From the text: In order to determine the dependency of hT1R2/hT1R3 for the cell response to different stimuli, selected compounds were subjected to a similar analysis on HEK293-Gα15 cells (not expressing the human sweet receptor).

[7] = target: hT1R2/hT1R3 (Homo sapiens (Human), UniProt Q7RTX0+Q8TE23); assay: Sweet FLIPR assay, hT1R2/hT1R3-HEK293-Gα15 S-9 cells; format: cell-based; settings: Table 5 Sweet Enhancer Amides
Sequence of hT1R2/hT1R3 (Q8TE23 other isoform, or with tags, fused parts or gaps): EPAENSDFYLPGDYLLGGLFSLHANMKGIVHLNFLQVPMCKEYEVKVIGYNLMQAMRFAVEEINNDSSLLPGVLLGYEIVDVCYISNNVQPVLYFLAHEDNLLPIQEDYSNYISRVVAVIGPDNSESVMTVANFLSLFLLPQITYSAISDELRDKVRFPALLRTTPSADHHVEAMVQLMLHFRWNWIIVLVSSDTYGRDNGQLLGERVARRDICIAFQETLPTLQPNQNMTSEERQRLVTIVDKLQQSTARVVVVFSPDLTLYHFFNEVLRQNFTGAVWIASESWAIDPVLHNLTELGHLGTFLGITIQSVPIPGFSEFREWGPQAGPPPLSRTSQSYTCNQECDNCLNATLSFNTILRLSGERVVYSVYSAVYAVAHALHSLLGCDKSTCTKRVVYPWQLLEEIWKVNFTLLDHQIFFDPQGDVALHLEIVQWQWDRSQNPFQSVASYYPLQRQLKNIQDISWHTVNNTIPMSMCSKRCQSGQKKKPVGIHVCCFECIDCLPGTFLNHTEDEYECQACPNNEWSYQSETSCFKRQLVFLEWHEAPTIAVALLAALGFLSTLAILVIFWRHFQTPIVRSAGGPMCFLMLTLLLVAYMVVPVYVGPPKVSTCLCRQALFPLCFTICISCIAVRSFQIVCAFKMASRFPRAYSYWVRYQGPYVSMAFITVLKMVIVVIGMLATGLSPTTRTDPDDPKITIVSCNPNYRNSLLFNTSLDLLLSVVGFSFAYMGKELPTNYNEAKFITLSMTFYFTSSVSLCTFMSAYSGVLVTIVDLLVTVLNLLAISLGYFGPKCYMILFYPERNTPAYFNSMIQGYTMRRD
Sequence of hT1R2/hT1R3 (Q7RTX0 21-852 C757R): as the sequence (Q7RTX0 21-852 C757R) above
Description: Compounds were initially selected based on their activity on the hT1R2/hT1R3-HEK293-Gα15 cell line (Li, et al. vide supra). Activity was determined using an automated fluorometric imaging assay on a FLIPR instrument (Fluorometric Intensity Plate Reader, Molecular Devices, Sunnyvale, Calif.) (designated FLIPR assay). […] S-9 cells were grown for 24 hours at 37° C. S-9 cells were then loaded with the calcium dye Fluo-3AM (Molecular Probes, Eugene, Oreg.), 4 μM in a phosphate buffered saline (D-PBS) (Invitrogen, Carlsbad, Calif.), for 1 hour at room temperature. After replacement with 25 μl D-PBS, stimulation was performed in the FLIPR instrument and at room temperature by the addition of 25 μl D-PBS supplemented with different stimuli at concentrations corresponding to twice the desired final level.
For dose-responses analysis, stimuli were presented in duplicates at 10 different concentrations ranging from 60 nM to 30 μM. Activities were normalized to the response obtained with 400 mM D-fructose, a concentration that elicits maximum receptor response. Ec50s were determined using a non-linear regression algorithm (using Senomyx, Inc. software), where the Hill slope, bottom asymptotes and top asymptotes were allow to vary.

[8] = target: human sweet receptor (Homo sapiens (Human), UniProt Q7RTX0+Q8TE23); assay: Dose responses of human sweet receptor with lactisole; format: cell-based; settings: read-out: EC50 of sweetener
Sequence of human sweet receptor (Q8TE23 other isoform, or with tags, fused parts or gaps): as the sequence (Q8TE23 other isoform, or with tags, fused parts or gaps) above
Sequence of human sweet receptor (Q7RTX0 21-852 C757R): as the sequence (Q7RTX0 21-852 C757R) above
From the text: Values represent the mean±SE for four independent responses.

[9] = target: T1, T1R1/T1R3; assay: Umami enhancement assay: MSG dose response with and without compound; format: cell-based; settings: Table 1; compound @ 1 uM
Description: In enhancement assay experiments, a MSG dose response was run and a second MSG dose response was run with a certain amount of candidate compound at every MSG concentrations at the same time. Then, the EC50 ratio is calculated based on the following definitions: EC50 Ratio=EC50(MSG)/EC50(MSG+[Compound])
wherein “[compound]” refers to the concentration of compound used to elicit (or enhance or potentiate) the MSG dose response. Those concentrations can vary from a pM to an mM, more preferred, from a low nM to μM.
as §2

[10] = target: T1, T1R1/T1R3; assay: Calcium imaging of HEK-Gα15 cells transiently transfected with human T1R1/T1R3; format: cell-based

SMILES: C=C1C[C@@]23CC[C@H]4[C@@](C)(CCC[C@@]4(C)C(=O)O[C@@H]4O[C@H](CO)[C@@H](O)[C@H](O)[C@H]4O)[C@@H]2CC[C@]1(O[C@@H]1O[C@H](CO)[C@@H](O)[C@H](O)[C@H]1O[C@@H]1O[C@H](CO)[C@@H](O)[C@H](O)[C@H]1O)C3 [Steviocide, stevioside]
effect of control sweeteners on activities of T1R1/T1R3 umami taste receptor [1]: do not affect

EC50 [2]: 0.33 µM
SMILES: CCCC(CCC)NC(=O)c1cccc(C(C)(F)F)c1 [Compound A70]

SMILES: N[C@@H](CC(=O)O)C(=O)O [L-aspartate, reference compound]
activation of T1R1/T1R3 receptor by L-amino acids [2]: significantly activated

effect of other sweeteners on human T1R1/T1R3 activities [1]: no effect
SMILES: O=C1NS(=O)(=O)c2ccccc21 [saccharin]
effect of control sweeteners on activities of T1R1/T1R3 umami taste receptor [1]: do not affect

EC50 [2]: 1.37 µM
SMILES: COc1ccc(CNC(O)c2ccccc2-c2ccccc2)c(OC)c1 (stereo not drawn) [Compound A104]

effect on mouse bitter receptor mT2R5 [3]: no effect
SMILES: COc1ccc(OC(C)C(=O)O)cc1 (stereo not drawn) [lactisole, Lactisole]
effect on endogenous muscarinic acetylcholine receptor response [4]: not inhibited; also recorded: no effect
detection thresholds for sweet, umami and salt taste stimuli [5]: dramatically increased detection thresholds for sweet and umami but not salt taste stimuli

EC50 [2]: 0.88 µM
SMILES: COC(=O)[C@@H](CC(C)C)NC(=O)c1ccc2c(c1)OCO2 [Compound A45]

EC50 [2]: 1.83 µM
SMILES: CCCC(CC)NC(=O)c1ccc2c(c1)CCO2 (stereo not drawn) [Compound A53]

EC50 [2]: 1.36 µM
SMILES: COC(=O)[C@H]1CCCC[C@H]1NC(=O)c1ccc(OC)c(Cl)c1 [Compound A103]

SMILES: O=C(CO)[C@@H](O)[C@H](O)[C@H](O)CO [D-Fructose, D-fructose]
functional response in FLIPR assay [6]: do not show any functional response

EC50 [7]: 1.39 µM
SMILES: Cc1cc(C)c(C(=O)NC2CCCCCC2)c(C)c1 [Compound E49, N-cycloheptyl-2,4,6-trimethylbenzamide]

EC50 [2]: 0.53 µM
SMILES: COC(=O)[C@@H](CCSC)NC(=O)c1ccc(OC)c(C)c1 [Compound A86]

EC50 [2]: 1.69 µM
SMILES: COC(=O)C(NC(=O)c1ccc2oc(C)nc2c1)C(C)C(C)C (stereo not drawn) [Compound A28]

effect of other sweeteners on human T1R1/T1R3 activities [1]: no effect
SMILES: COC(=O)[C@H](Cc1ccccc1)NC(=O)[C@@H](N)CC(=O)O [aspartame] (H-Asp-Phe-OMe)

effect of other sweeteners on human T1R1/T1R3 activities [1]: no effect
EC50 ([8]; 0 μM lactisole): 19400 ± 900 µM
EC50 ([8]; 10 μM lactisole): 24700 ± 1000 µM
EC50 ([8]; 20 μM lactisole): 31300 ± 300 µM
SMILES: OC[C@H]1O[C@@](CO)(O[C@H]2O[C@H](CO)[C@@H](O)[C@H](O)[C@H]2O)[C@@H](O)[C@@H]1O [sucrose]

effect of other sweeteners on human T1R1/T1R3 activities [1]: no effect
SMILES: N[C@H](Cc1c[nH]c2ccccc12)C(=O)O [D-tryptophan]

EC50 [2]: 0.35 µM
SMILES: CC[C@@H](C)[C@@](C)(NC(=O)c1ccc2c(c1)OCO2)C(=O)OC [Compound A42]

EC50 [2]: 1.48 µM
SMILES: COC(=O)[C@@H](CC(C)C)NC(=O)c1ccc2nc(C)oc2c1 [Compound A25]

EC50 [2]: 0.29 µM
Ec50 ratio (vs. MSG) [9]: 10.75
SMILES: CCC[C@@H](NC(=O)c1ccc(OC)c(Cl)c1)C(=O)OC [Compound A67]

SMILES: N[C@@H](CCC(=O)O)C(=O)O [L-glutamate, reference compound]
activation of T1R1/T1R3 receptor by L-amino acids [2]: significantly activated
percentage of cells that responded ([2]; induced cells (inducible T1R1/T1R3 expression)): approximately 80%
percentage of cells that responded ([10]; transiently transfected cells): approximately 10%

EC50 [2]: 0.53 µM
SMILES: CCCC(CCC)NC(=O)c1cccc(OC)c1 [Compound A84]

EC50 [7]: 3.38 µM
SMILES: COc1cccc2c1CCCC2NC(=O)c1cc(O)ccc1O (stereo not drawn) [Compound E18, 2,5-dihydroxy-N-(5-methoxy-1,2,3,4-tetrahydronaphthalen-1-yl)benzamide]

effect of compound alone on T1R1/T1R3 ([1]; alone): no effect
effect on T1R1/T1R3 activity in the presence of L-glutamate ([1]; threshold level of L-glutamate (4 mM)): enhanced the activity of the receptor
SMILES: O=S(=O)(O)NC1CCCCC1 [cyclamate]

EC50 [7]: 8.09 µM
SMILES: Cc1oncc1C(=O)N[C@@H]1CCCc2ccccc21 [Compound E26, (R)-5-methyl-N-(1,2,3,4-tetrahydronaphthalen-1-yl)isoxazole-4-carboxamide]

EC50 [2]: 0.91 µM
Ec50 ratio (vs. MSG) [9]: 4.51
SMILES: CCCC(CCC)NC(=O)c1cc2cc(C)ccc2o1 [Compound A10]

SMILES: N[C@@H](CCC(=O)O)C(=O)O [glutamate]
maximal percentage of responding cells ([10]; glutamate alone): approximately 5%
maximal percentage of responding cells ([10]; glutamate plus 0.2 mM IMP): approximately 10%

EC50 ([8]; 0 μM lactisole): 370 ± 20 µM
EC50 ([8]; 10 μM lactisole): 600 µM
EC50 ([8]; 20 μM lactisole): 940 ± 80 µM
SMILES: N[C@H](Cc1c[nH]c2ccccc12)C(=O)O [D-Trp, D-tryptophan]

EC50 [2]: 0.61 µM
SMILES: CCCC[C@@H](NC(=O)c1ccc2c(c1)OCO2)C(=O)OC [Compound A44]
